Laboratory results taken from BindingDB's records for doi:10.1021/jm030817d (Glaxosmithkline Pharmaceuticals, 2003).

Biological target: D(3) dopamine receptor (Homo sapiens, UniProt P35462)
Assay: Binding affinity against human Dopamine receptor D3 expressed in CHO cells by using [125I]iodosulpiride as radioligand

D(3) dopamine receptor, sequence (P35462 as listed by the source): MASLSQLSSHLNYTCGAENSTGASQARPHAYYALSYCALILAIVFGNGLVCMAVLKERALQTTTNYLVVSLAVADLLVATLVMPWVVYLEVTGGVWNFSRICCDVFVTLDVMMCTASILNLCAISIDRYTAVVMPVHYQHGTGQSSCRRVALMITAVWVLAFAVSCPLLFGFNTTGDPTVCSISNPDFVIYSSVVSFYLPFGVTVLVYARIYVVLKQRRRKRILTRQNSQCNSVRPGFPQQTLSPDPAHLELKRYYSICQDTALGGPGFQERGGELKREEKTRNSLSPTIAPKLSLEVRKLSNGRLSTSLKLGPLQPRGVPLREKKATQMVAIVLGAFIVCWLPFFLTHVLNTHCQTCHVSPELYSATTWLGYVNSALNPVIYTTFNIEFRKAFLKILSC

## CS(=O)(=O)c1ccc2c(c1)CCN(CC[C@H]1CC[C@H](NC(=O)C=Cc3ccccc3F)CC1)CC2
  Ki: 1.3 nM

## CS(=O)(=O)Oc1ccc2c(c1)CCN(CC[C@H]1CC[C@H](NC(=O)C=Cc3ccccc3F)CC1)CC2
  Ki: 1.3 nM

## COc1ccccc1C=CC(=O)N[C@H]1CC[C@H](CCN2CCc3ccc(OS(C)(=O)=O)cc3CC2)CC1
  Ki: 1.3 nM

## CS(=O)(=O)Oc1ccc2c(c1)CCN(CC[C@H]1CC[C@H](NC(=O)C=Cc3cccc(F)c3)CC1)CC2
  Ki: 1.3 nM
